From the supplement of paper PMC6045584
± gives the standard deviation of the averaged measurements.

What was measured:
FLAVOPIRIDOL = compound: CN1CC[C@H](c2c(O)cc(O)c3c(=O)cc(-c4ccccc4Cl)oc23)[C@H](O)C1 [FLAVOPIRIDOL]; test: surviving fraction relative to DMSO-only wells; higher = less growth inhibition; conditions: exposure time: 5 days
How it was run: (§1)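 Inhibitors were tested at 0.5, 1, 5, 10, 50, 100, 500 and 1000 nM, applied continuously for five days beginning 24 hours after log-phase tumour cells were seeded at 250–500 per well in 384-well plates. CellTiter-Glo luminescence served as the viability measure, expressed as surviving fraction against the median of DMSO-only wells. Each line, screened three times, was kept only with replicate Pearson r >0.7 and median Z' >0.3.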

SALINOMYCIN = compound: CC[C@@H](C(=O)[C@@H](C)[C@@H](O)[C@H](C)[C@@H]1O[C@@H]([C@@H](CC)C(=O)O)CC[C@@H]1C)[C@H]1O[C@]2(C=C[C@@H](O)[C@]3(CC[C@@](C)([C@H]4CC[C@](O)(CC)[C@H](C)O4)O3)O2)[C@H](C)C[C@@H]1C [SALINOMYCIN]; test: as above; conditions: exposure time: 5 days
How it was run: as §1

Row | Test System | surviving fraction (FLAVOPIRIDOL; 0.5 nM) | surviving fraction (FLAVOPIRIDOL; 1 nM) | surviving fraction (FLAVOPIRIDOL; 5 nM) | surviving fraction (FLAVOPIRIDOL; 10 nM) | surviving fraction (FLAVOPIRIDOL; 50 nM) | surviving fraction (FLAVOPIRIDOL; 100 nM) | surviving fraction (FLAVOPIRIDOL; 500 nM) | surviving fraction (FLAVOPIRIDOL; 1000 nM) | surviving fraction (SALINOMYCIN; 0.5 nM) | surviving fraction (SALINOMYCIN; 1 nM) | surviving fraction (SALINOMYCIN; 5 nM) | surviving fraction (SALINOMYCIN; 10 nM) | surviving fraction (SALINOMYCIN; 50 nM) | surviving fraction (SALINOMYCIN; 100 nM) | surviving fraction (SALINOMYCIN; 500 nM) | surviving fraction (SALINOMYCIN; 1000 nM)
1 | MDAMB361 BREAST | 0.919 ± 0.18 | 0.814 ± 0.066 | 0.841 ± 0.05 | 0.861 ± 0.13 | 0.937 ± 0.13 | 0.719 ± 0.039 | 0.223 ± 0.021 | 0.229 ± 0.022 | 0.826 ± 0.086 | 0.866 ± 0.041 | 0.877 ± 0.0093 | 0.845 ± 0.058 | 0.909 ± 0.047 | 0.845 ± 0.035 | 0.753 ± 0.014 | 0.638 ± 0.0085
2 | MDAMB436 BREAST | 0.998 ± 0.042 | 0.991 ± 0.071 | 1.06 ± 0.14 | 0.941 ± 0.036 | 0.556 ± 0.026 | 0.183 ± 0.024 | 0.185 ± 0.0025 | 0.182 ± 0.0028 | 0.858 ± 0.039 | 0.902 ± 0.047 | 0.668 ± 0.033 | 0.567 ± 0.042 | 0.464 ± 0.059 | 0.375 ± 0.049 | 0.105 ± 0.0028 | 0.0963 ± 0.0055
3 | MDAMB453 BREAST | 1.039 ± 0.0056 | 1.03 ± 0.071 | 1.1 ± 0.083 | 1.01 ± 0.02 | 0.586 ± 0.056 | 0.134 ± 0.022 | 0.085 ± 0.017 | 0.074 ± 0.025 | 0.969 ± 0.025 | 0.9587 ± 0.0015 | 0.978 ± 0.027 | 0.9897 ± 0.009 | 1.02 ± 0.058 | 0.993 ± 0.045 | 0.56 ± 0.032 | 0.426 ± 0.06
4 | MDAMB468 BREAST | 1.03 ± 0.031 | 0.967 ± 0.064 | 1.03 ± 0.045 | 0.991 ± 0.04 | 0.734 ± 0.061 | 0.15 ± 0.016 | 0.0447 ± 0.005 | 0.04 ± 0.0061 | 1 ± 0.02 | 1 ± 0.087 | 1.04 ± 0.026 | 1.01 ± 0.052 | 1.12 ± 0.022 | 1.09 ± 0.04 | 0.648 ± 0.054 | 0.329 ± 0.018
5 | MFM223 BREAST | 1.45 ± 0.57 | 1.45 ± 0.64 | 1.46 ± 0.61 | 1.25 ± 0.4 | 0.351 ± 0.032 | 0.119 ± 0.045 | 0.0438 ± 0.021 | 0.0642 ± 0.061 | 1.08 ± 0.091 | 1.05 ± 0.024 | 1.03 ± 0.03 | 1.01 ± 0.036 | 0.979 ± 0.051 | 0.461 ± 0.03 | 0.0642 ± 0.0082 | 0.0428 ± 0.0051
6 | MG63 BONE | 1.06 ± 0.022 | 1.06 ± 0.023 | 1.165 ± 0.0064 | 1.19 ± 0.033 | 1.35 ± 0.045 | 0.782 ± 0.049 | 0.0347 ± 0.0023 | 0.0313 ± 0.0015 | 0.963 ± 0.02 | 0.941 ± 0.032 | 0.98 ± 0.021 | 0.946 ± 0.045 | 1.006 ± 0.003 | 0.871 ± 0.0095 | 0.167 ± 0.0053 | 0.081 ± 0.0044
7 | MHM BONE | 1.02 ± 0.036 | 1.04 ± 0.035 | 1.06 ± 0.024 | 1.11 ± 0.025 | 1.227 ± 0.0078 | 1.16 ± 0.048 | 0.0433 ± 0.0021 | 0.0397 ± 0.0021 | 0.988 ± 0.042 | 0.981 ± 0.046 | 1.01 ± 0.019 | 0.9657 ± 0.0042 | 1.037 ± 0.009 | 1.081 ± 0.0025 | 0.921 ± 0.044 | 0.694 ± 0.054
8 | NCIH441 LUNG | 1.18 ± 0.06 | 1.12 ± 0.026 | 1.09 ± 0.042 | 1.08 ± 0.11 | 0.953 ± 0.081 | 0.698 ± 0.17 | 0.103 ± 0.024 | 0.0917 ± 0.024 | 1.01 ± 0.034 | 1.01 ± 0.038 | 1.06 ± 0.054 | 0.904 ± 0.06 | 1.12 ± 0.023 | 1.05 ± 0.049 | 0.715 ± 0.049 | 0.504 ± 0.061
9 | NOS1 BONE | 1.25 ± 0.046 | 1.19 ± 0.054 | 1.22 ± 0.15 | 1.26 ± 0.084 | 0.54 ± 0.061 | 0.083 ± 0.0027 | 0.031 ± 0.004 | 0.0383 ± 0.0084 | 1.01 ± 0.071 | 1.07 ± 0.15 | 1.09 ± 0.025 | 1.05 ± 0.066 | 1.06 ± 0.083 | 1.09 ± 0.062 | 0.0907 ± 0.013 | 0.0537 ± 0.007
10 | NY BONE | 0.984 ± 0.015 | 0.977 ± 0.017 | 1.05 ± 0.027 | 1.01 ± 0.05 | 0.813 ± 0.071 | 0.0513 ± 0.01 | 0.025 ± 0.001 | 0.024 ± 0.001 | 0.929 ± 0.024 | 0.9297 ± 0.0087 | 0.965 ± 0.018 | 0.928 ± 0.021 | 0.851 ± 0.028 | 0.654 ± 0.0095 | 0.241 ± 0.009 | 0.136 ± 0.0072
11 | OS25HAL BONE | 1.01 ± 0.035 | 0.996 ± 0.058 | 1.12 ± 0.052 | 1.06 ± 0.021 | 1.1 ± 0.036 | 0.101 ± 0.015 | 0.048 ± 0.013 | 0.0443 ± 0.012 | 0.952 ± 0.016 | 0.943 ± 0.012 | 0.964 ± 0.02 | 0.932 ± 0.02 | 0.979 ± 0.031 | 0.792 ± 0.017 | 0.122 ± 0.014 | 0.0527 ± 0.0015
12 | OSHN BONE | 1.08 ± 0.018 | 1.08 ± 0.022 | 1.114 ± 0.0095 | 1.08 ± 0.018 | 1.23 ± 0.035 | 0.382 ± 0.041 | 0.0357 ± 0.0055 | 0.0323 ± 0.0075 | 1.02 ± 0.019 | 1.01 ± 0.011 | 1.01 ± 0.016 | 1.02 ± 0.02 | 1.01 ± 0.018 | 0.966 ± 0.013 | 0.247 ± 0.005 | 0.115 ± 0.0046
13 | PCI30 HEADNECK | 1.02 ± 0.019 | 1.02 ± 0.038 | 1.15 ± 0.031 | 1.13 ± 0.029 | 0.701 ± 0.028 | 0.085 ± 0.0053 | 0.032 ± 0.0017 | 0.0303 ± 0.00058 | 0.829 ± 0.026 | 0.895 ± 0.025 | 1.01 ± 0.07 | 0.945 ± 0.03 | 0.813 ± 0.013 | 0.64 ± 0.064 | 0.202 ± 0.005 | 0.145 ± 0.0085
14 | RDES SOFT TISSUE | 1.36 ± 0.11 | 1.3 ± 0.12 | 1.39 ± 0.07 | 1.44 ± 0.059 | 1.66 ± 0.12 | 0.945 ± 0.2 | 0.0467 ± 0.0025 | 0.0383 ± 0.0025 | 1.12 ± 0.12 | 1.21 ± 0.03 | 1.17 ± 0.2 | 1.12 ± 0.13 | 0.438 ± 0.22 | 0.0573 ± 0.0031 | 0.399 ± 0.021 | 0.218 ± 0.014
15 | S68 BREAST | 1.18 ± 0.31 | 0.847 ± 0.12 | 0.765 ± 0.091 | 1.2 ± 0.31 | 0.888 ± 0.29 | 0.483 ± 0.068 | 0.0377 ± 0.0021 | 0.0367 ± 0.0055 | 0.923 ± 0.097 | 0.998 ± 0.14 | 1.37 ± 0.22 | 1.04 ± 0.29 | 0.934 ± 0.22 | 0.731 ± 0.079 | 0.337 ± 0.099 | 0.209 ± 0.03
16 | SAOS2 BONE | 1.23 ± 0.13 | 1.18 ± 0.06 | 1.26 ± 0.039 | 1.14 ± 0.04 | 0.889 ± 0.048 | 0.159 ± 0.022 | 0.0307 ± 0.0015 | 0.0247 ± 0.0025 | 0.98 ± 0.038 | 0.902 ± 0.077 | 0.946 ± 0.073 | 0.8803 ± 0.0075 | 1.06 ± 0.097 | 1.11 ± 0.05 | 0.763 ± 0.016 | 0.488 ± 0.018
17 | SCC003 HEADNECK | 1.06 ± 0.061 | 1.1 ± 0.083 | 1.12 ± 0.055 | 0.987 ± 0.084 | 0.667 ± 0.032 | 0.392 ± 0.14 | 0.0627 ± 0.0064 | 0.0573 ± 0.0032 | 0.904 ± 0.056 | 0.863 ± 0.098 | 0.946 ± 0.042 | 0.973 ± 0.059 | 1.04 ± 0.11 | 0.897 ± 0.05 | 0.49 ± 0.021 | 0.267 ± 0.016
18 | SCC36 HEADNECK | 0.982 ± 0.1 | 0.974 ± 0.062 | 1.14 ± 0.16 | 1.24 ± 0.15 | 0.962 ± 0.086 | 0.405 ± 0.0093 | 0.036 ± 0.0035 | 0.032 ± 0.001 | 0.984 ± 0.07 | 0.972 ± 0.12 | 1.094 ± 0.0015 | 0.973 ± 0.039 | 1.11 ± 0.02 | 0.925 ± 0.051 | 0.149 ± 0.011 | 0.08 ± 0.0078
19 | SCC47 HEADNECK | 1.18 ± 0.052 | 1.2 ± 0.061 | 1.23 ± 0.093 | 1.15 ± 0.078 | 0.665 ± 0.013 | 0.153 ± 0.043 | 0.039 ± 0.0017 | 0.0353 ± 0.0029 | 0.842 ± 0.064 | 0.792 ± 0.026 | 0.977 ± 0.074 | 0.992 ± 0.044 | 1.06 ± 0.085 | 1 ± 0.12 | 0.561 ± 0.068 | 0.489 ± 0.023
20 | SCC90 HEADNECK | 1.07 ± 0.099 | 1.08 ± 0.072 | 1.12 ± 0.085 | 1.07 ± 0.12 | 0.834 ± 0.079 | 0.378 ± 0.086 | 0.0317 ± 0.0057 | 0.027 ± 0.002 | 0.897 ± 0.073 | 0.919 ± 0.035 | 1.16 ± 0.059 | 0.986 ± 0.14 | 1.17 ± 0.2 | 0.963 ± 0.057 | 0.301 ± 0.041 | 0.255 ± 0.067
